The subject of one experiment is enzyme EC 2.7.8.27. Description: Activity of enzyme EC 2.7.8.27 in cellular extracts (NBD-Cer). The format is biochemical. Particulars: homogenised cells, 200 μM, NBD-Cer 2 hours. How it is done:
FIG. 4. Compound 2OHOA acts directly on enzyme EC 2.7.8.27. In A, B, C, in all cases, we incubated cells or cellular extracts or means of incubation with the fluorescent stratum of this enzyme NBD-Cer (nitro-benzoxadiazol-il) ceramide], in the presence or absence (control, white bars) of 2OHOA (black bars). Then, we extracted the lipids and determined the levels of formation of NBD-SM per HPTLC (HP-TLC, high performance thin layer chromatography). The values are presented on the ordinate axis as the average±ESM (n=3-5).
B. In vitro experiment of the activity of enzyme EC 2.7.8.27 in cellular extracts, where we measured the activity of the enzyme after killing the cells. […] For these experiments, homogenised cells were incubated with compound 2OHOA (200 μM) and NBD-Cer for 2 hours.

A further experiment deals with U118 cells. Briefly: Nuclear SM levels in U118 cells. The experiment is classed as cell-based, human. Particulars: U118, 200 μM, 24 hours. How it is done:
FIG. 3. Compound 2OHOA induces an increase in nuclear SM. U118 cancer cells were treated for 24 hours with a vehicle (control) or with 2OHOA at a concentration of 200 μM. The values of the ordinate axis represent the average±ESM (n=3-5) of levels of SM compared to the untreated control (100%).
Another effect associated to the reduction in cell proliferation is an increase in the levels of nuclear SM.

A further experiment deals with PC3 cells. Description: Levels of SM in cell membranes, PC3. Particulars: PC3, 200 μM [−]2OHOA. The experiment is classed as cell-based, human. How it is done:
(§1) The levels of SM, cultivated in the absence (control) or presence of 200 μM of [−]2OHOA, in normal cell membranes (MRC-5 and IMR90) were measured, and also in several types of tumoral cells (see Table 2). In all cases, we detected that the membranes of tumoral cells have SM levels of about half or a third of that in normal cells (FIG. 1). We can therefore assert that SM concentration is a biomarker which indicates tumorgenesis in human cells. On the other hand, treatments with the molecules of the present invention induce an increase of SM in the tumour cells which is not naturally occurring. […] For example, the spectrophotometry determination of solution fluorescence of the SM levels is a very simple, quick and efficient analysis method (FIG. 1D). Thus, this invention has generated a method for diagnosis for detecting the described pathological processes and pathologies in which there are SM level changes, and also for monitoring the efficiency of the therapy using molecules of the present invention and others of similar activity. Based on this knowledge, this invention also includes kits for diagnosing these diseases.

Another experiment deals with HeLa cells. Description: Levels of SM in cell membranes, HeLa. The format is cell-based, human. Particulars: 200 μM [−]2OHOA. How it is done: as §1
The subject of another experiment is SH-SYSY cells. Briefly: Levels of SM in cell membranes, SH-SYSY. Conditions: 200 μM [−]2OHOA. The experiment is classed as cell-based, human. As to the method:
as §1

For a further experiment, the system named is C-6 cells. Description: Levels of SM in cell membranes, C-6. The experiment is classed as cell-based. Conditions: C-6 rat glioma, 200 μM [−]2OHOA. As to the method: as §1
Another experiment concerns SF268 cells. Briefly: Cell growth inhibition, SF268. The format is cell-based, human. Further details: key: +: inhibition of cell growth; −: absence of effect.
The test system of experiment [1] is human lung tumour sections (A549 cells). Briefly: SM marking (lysenin) in A549 tumour sections from treated mice. The experiment is classed as in vivo. Particulars: 600 or 900 mg/kg per day, oral, 50 days. How it is done: C. Upper panel: specific marking by immunocytochemical techniques of the SM (left: lysenin followed by an antibody marked with Alexa 488 fluorophore), of nuclear DNA with Hoechst 33258 (center: Hoechst) or both (right, merge). Figures correspond to human lung tumour sections (A549 cells) formed in immuno-depressed mice treated with a vehicle (control) or with [−]2OHOA at 600 mg/kg per day or at 900 mg/kg per day (oral administration, 50 days).
Bottom panel: The ordinate axis represents the quantification of the fluorescence intensity (arbitrary units) by confocal microscopy in slices of tumours shown in the upper panel (average+average standard deviation), coming from animals treated with a vehicle, or 2OHOA at 600 mg/kg per day (T600) or 900 mg/kg per day (T900) during 50 days. *** P<0.001.

This is an account of results in patent US9359281B2, “Enantiomers of 2-hydroxy derivatives of fatty acids” (UNIVERSITAT DE LES ILLES BALEARS, priority 2011, dated 2016).

Turning to `CCCCCCCC/C=C\CCCCCCC(O)C(=O)O` (racemic) [2OHOA, 2-hydroxyoleic acid], in the experiment with enzyme EC 2.7.8.27, the “activation of enzyme EC 2.7.8.27 in cellular extracts” value was “able to activate enzyme EC 2.7.8.27 by direct interaction”. Further, the “level of nuclear SM” value in the experiment with U118 cells was “increases in the level of nuclear SM”.

Take `CCCCCCCC/C=C\CCCCCCC(O)C(=O)O` (centres unmarked) [[−]2OHOA] [[−] HOOC—HOCH—(CH2)6—(CH═CH—CH2)1—(CH2)6—CH3]: the “% SM after treatment” value in the experiment on PC3 cells was found to be 27%; in the experiment with HeLa cells, 21%; in the experiment with SH-SYSY cells, 22%; in the experiment on C-6 cells, 20%. Further, in the experiment with SF268 cells, the “Effect (anti-proliferation effect)” value is listed as “+”. Further, in experiment [1], the “levels of SM in A549 tumours” value was “levels of SM significantly increase”.
